Tests used:
[1] = Dissolution of IBU compositions in SGFsp pH 1.2 (USP apparatus II, fiber-optic UV); assay type: physicochemical; details: at 2 hours
Procedure: All dissolution tests were conducted in a Vankel VK-7000 (Varian, Inc.) USP apparatus II (paddle) dissolution tester. The dissolution medium was maintained at 37° C. with a recirculating heater and a paddle speed of 75 RPM was constant throughout the test. The theoretical equivalent of 200 mg of IBU (1.0 g of KSD product) was added to each vessel containing 1 L of the dissolution medium (n=3). […] The dissolution medium recipe (SGFsp) consisted of 2.0 g NaCl and 80 ml of 0.1 N HCl in a total of 1 L of purified water (pH=1.2). The dissolution medium was degassed prior to testing by the heat/sonication method.
The concentration of IBU in solution during the 120 minute dissolution test (shown in Table 10) was measured once per minute using a Pion Spectra in-situ fiber-optic UV-diss system (Pion, Inc., Billerica, Mass.) with a 1 mm path length probe tip. Concentrations were determined by integrating the area under the UV absorption curve in a wavelength range of 216 to 222 nm with a baseline correction at 450 nm. Linearity was established over a range of 1.4 to 200 μg/ml with a correlation coefficient of 0.9992. A diluents consisting of 7:3 (V/V) SGFsp:Acetonitrile (HPLC grade, no UV absorption beyond 190 nm) was used to generate the IBU standard curve.

[2] = cited from earlier work

| Molecule | final concentration [1] [mg/mL] | pKa [2] |
| --- | --- | --- |
| CC(C)Cc1ccc(C(C)C(=O)O)cc1 (stereo not drawn) [Pure Ibuprofen, Ibuprofen] | > 0.02 |  |
| Cc1ccnc2c1NC(=O)c1cccnc1N2C1CC1 [Nevirapine] |  | 2.8 |
| Acetriptan |  | 4.9 |
